Experimental data: paper PMC8424300, “Identification of novel microtubule inhibitors effective in fission yeast and human cells and their effects on breast cancer cell lines” (Open Biology, 2021)

Experiments:
MDR-sup fission yeast = test: Phenotypic assay of microtubule organization in MDR-sup strain expressing GFP-atb2; type: cell-based, Schizosaccharomyces pombe; details: 5 µM compound for 3 h, living cells
Procedure: We have previously screened a collection of 10 371 small molecules to identify compounds that inhibit the growth of a multiple-drug-sensitive fission yeast strain (MDR-sup). We selected 248 compounds (2.4% of the total) that inhibited fission yeast cell growth rate by at least 50% (figure 1a) and subsequently conducted a phenotypic screen of these to identify drugs that affect microtubule organization (figure 1b). After the MDR-sup cells were treated with 5 µM of each compound for 3 h, microtubules were monitored using GFP tagged α-tubulin Atb2 and live-cell fluorescence microscopy. In untreated interphase cells, microtubules form long cytoplasmic arrays that run parallel to the long cellular axis, and in mitotic cells, microtubules form a bipolar spindle in the nucleus and the cytoplasmic microtubules disappear (figure 1c(i), arrow). […] This screen identified 34 compounds that induced cytological phenotypes indicative of defects in microtubule organization or function.
Figure 1. Phenotypic screening in MDR-sup fission yeast (a). Growth assay screening using MDR-sup strain. The optical density was measured with 20 µM of each compound and 248 compounds that gave at least 50% growth inhibition were used for further phenotyping marked by the red lines. Growth was normalized to DMSO-treated cells. (b) Schematic representation of the screening workflow. (c) Examples of the phenotypic assay using L1, P2 and B8 in the MDR-sup strain expressing GFP-atb2 (tubulin) are shown. Cells were incubated in 5 µM compound for 3 h and atb2 signals were detected in living cells. (i) Cells in absence of any compound. In interphase cells, α-tubulin Atb2 protein was detected in the nucleus and interphase microtubules, while mitotic spindles were detected in mitotic cells (arrows). (ii) In the presence of L1, microtubules were depolymerized and tubulin signals were detected distributed throughout the nucleus. (iii) In the presence of P2, short spindles were detected but anaphase spindles were not. (iv) In the presence of B8, interphase microtubules were not detected, while, dots were detected. […]

[1] = biological target: T1, tubulin (colchicine-binding site) (Sus scrofa, UniProt P02550+P02554); test: Fluorescence-based colchicine displacement assay; details: for fluorescence of the colchicine-tubulin complex: 2 µM tubulin + 2 µM colchicine set 100%
T1 construct: purchased Cytoskeleton, Inc
T1 sequence (P02554 whole entry): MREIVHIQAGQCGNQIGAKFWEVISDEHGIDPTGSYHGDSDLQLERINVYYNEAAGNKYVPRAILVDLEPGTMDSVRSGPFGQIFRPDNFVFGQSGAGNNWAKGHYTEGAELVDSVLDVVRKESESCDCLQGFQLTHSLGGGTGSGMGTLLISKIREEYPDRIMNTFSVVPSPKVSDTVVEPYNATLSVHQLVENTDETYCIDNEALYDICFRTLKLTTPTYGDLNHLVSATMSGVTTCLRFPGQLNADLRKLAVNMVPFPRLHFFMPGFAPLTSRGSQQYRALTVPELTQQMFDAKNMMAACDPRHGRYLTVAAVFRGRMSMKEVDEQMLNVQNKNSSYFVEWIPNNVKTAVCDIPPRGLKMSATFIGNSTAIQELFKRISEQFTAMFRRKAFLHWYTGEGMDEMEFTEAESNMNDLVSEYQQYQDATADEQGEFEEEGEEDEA
T1 sequence (P02550 whole entry): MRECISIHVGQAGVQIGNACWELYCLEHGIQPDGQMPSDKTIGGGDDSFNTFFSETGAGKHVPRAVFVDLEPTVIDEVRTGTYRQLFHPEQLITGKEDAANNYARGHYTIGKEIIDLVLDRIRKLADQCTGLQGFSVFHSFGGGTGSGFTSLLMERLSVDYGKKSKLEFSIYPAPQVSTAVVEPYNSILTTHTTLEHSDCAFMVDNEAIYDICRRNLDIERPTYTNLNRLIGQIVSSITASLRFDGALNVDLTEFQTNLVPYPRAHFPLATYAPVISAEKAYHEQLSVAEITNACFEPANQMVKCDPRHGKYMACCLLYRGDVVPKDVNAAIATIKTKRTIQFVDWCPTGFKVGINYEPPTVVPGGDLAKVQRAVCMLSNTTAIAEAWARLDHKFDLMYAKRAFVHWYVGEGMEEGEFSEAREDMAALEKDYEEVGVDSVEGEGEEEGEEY
Procedure: Figure 6. […] Each value represents the mean ± s.e.m. of three independent experiments.
Reaction mixtures were excited at 380 nm and the emission was measured at 438 nm. Values were exported as Excel files and graphs were generated in Prism V9 GraphPad.

[2] = system: BT549, CAL51 and MB-157 breast cancer cell lines; test: Viability dose-response in breast cancer cell lines; type: cell-based; details: Homo sapiens, 96 h; range over three breast cancer cell lines; 4 days of treatment
Procedure: (§1) The sensitivity of the inhibitors L1, J3, A15 and M2 were evaluated in three breast cancer cell lines, (BT549, CAL51 and MB-157) and a non-cancer cell line from the human mammary gland, MCF-10A (figure 8). Drug sensitivity was determined by culturing breast cancer cell lines (black lines) and the non-cancer cell line (red line) with a range of concentrations of each compound, and viability was measured after 4 days of treatment in triplicate.
(§2) Figure 8. Dose–response curves in three cancer cell lines (BT549, CAL51 and MB-157) are shown in black and non-cancer cell line; MCF-10A is shown in red. They were subjected to a dose–response matrix of the tubulin inhibitor, L1, A15, M2 and J3, respectively. Viability relative to the vehicle control was measured […] after treatment. Mean ± s.e.m. for n = 3 experiments is shown.
(§3) Cells were plated in 384-well plates at a density of 800 cells per well in 22.5 µl of media. After 24 h, 2.5 µl drug was diluted in media and was added to each well. Following 5 days of incubation, viability was assessed using CellTiter-Glo (Promega) according to the manufacture's protocol. Luminescence in each well was measured using a Synergy Neo2 plate reader (BioTek).

MCF-10A = test: Viability dose-response in non-cancer mammary cell line; type: cell-based, human
Procedure: as §1, §2, §3

CAL51 cells = test: Clonogenic (colony-forming) assay; type: cell-based, human; details: 12 h exposure, 9 days growth
Procedure: Finally, a clonogenic assay was used to further evaluate the synergy effects between the L1 and Plk1 inhibitors to inhibit colony formation of breast cancer CAL51 cells after a 12 h drug exposure. The percentages of colony formation of cells treated with 0.1 nM BI2536 alone and 0.5 µM L1 alone were 89% and 67%, respectively, while cells treated with both 0.1 nM BI2536 and 0.5 µM L1 together were 2% (figure 10) indicating strong synergetic effects in colony formation.
Figure 10. Quantification of the colony formation experiments (n = 3) after a 12 h exposure. CAL51 cells were treated with vehicle control, 0.1 nM BI2536, 0.5 µM L1 or 0.1 nM BI2536 and 0.5 µM L1 for 12 h. Cells were grown for 9 days in fresh media after 12 h exposure. Mean ± s.e.m. (n = 3) is shown.
CAL51 cells were plated at a density of 200 cells per 60 mm tissue culture dish. After 24 h, they were treated with vehicle (DMSO), 0.1 nM BI2538, 0.5 µM L1 or the combination of 0.1 nM BI2538 and 0.5 µM L1, respectively, for 12 h. After an exposure, the cells were washed with warm sterile PBS, and incubated for additional 9 days in fresh media. After the incubation, cells were fixed and stained with a 20% MeOH: 0.01% crystal violet solution for 30 min. Colonies were counted using a stereomicroscope in three independent experiments.

[3] = system: fission yeast mutant strains (nda2-KM52, nda3-KM311, cdc25-22, cut14-208, act1-48); test: Drug sensitivity of fission yeast mutants spotted on YE medium; type: cell-based, Schizosaccharomyces pombe; details: figure S3
Procedure: The Schizosaccharomyces pombe SAK933 strain (h90 ade6 leu1 ura4-D18 GFP-atb2≪kanr sid4-mcherry≪hygr caf5::bsdR pap1Δ pmd1Δ mfs1Δ bfr1Δ dnf2 Δ erg5::ura4+) [57] used for the phenotypic screening in this study was grown at 30°C in yeast extract (YE) medium containing adenine, leucine, uridine and histidine. A haploid wild-type strain 972 h^- and its derivative strains were used in the electronic supplementary material, figure S3: nda2-km52, nda3-km311 [58], cdc25-22 [59, 60], cdc14-208 [61] and act1-48 [62] spotted onto YE medium containing the same four supplements above and incubated for 3 days at 30°C.

COc1cc(Br)cc2c1OC(c1ccc3c(c1)OCO3)C([N+](=O)[O-])=C2 (stereo not shown) [L1]
microtubule phenotype (GFP-atb2 tubulin signal) (MDR-sup fission yeast): microtubules are undetectable, and α-tubulin accumulates in the nucleus | fluorescence of the colchicine-tubulin complex ([1]; 5 µM L1): 87% | fluorescence of the colchicine-tubulin complex ([1]; 10 µM L1): 71% | colchicine-tubulin interaction ([1]; 50 µM L1): abolished the interaction between colchicine and tubulin complex completely | IC50 [2]: 2.4 to 3.1 µM | IC50 (MCF-10A; Homo sapiens, 96 h, MCF-10A, 4 days of treatment): 9.6 µM | IC50 in MCF-10A relative to the three breast cancer cell lines (MCF-10A; ratio non-cancer / cancer lines): more than threefold higher | percentage of colony formation (CAL51 cells; 0.1 nM BI2536 and 0.5 µM L1 together): 2% | percentage of colony formation (CAL51 cells; 0.5 µM L1 alone): 67% | drug sensitivity of cdc25-22, cut14-208 and act1-48 mutants [3]: No such drug hypersensitivity
